According to the OPERA property sets (Mansouri et al. 2018):

Conditions: for log10 BCF / log10 biotransformation half-life (days): fish

| SMILES | melting point [°C] | boiling point [°C] | further results |
| --- | --- | --- | --- |
| CCCCCCC(C=O)=Cc1ccccc1 | 39.2 | – | – |
| Cc1c(Cl)ccc(Cl)c1Cl | – | – | log10 Henry constant (atm·m³/mol): -2.82 |
| FC(F)C(F)F | -89 | -19.9 | – |
| Clc1cc2oc3c(Cl)c(Cl)cc(Cl)c3c2c(Cl)c1Cl | – | – | log10 BCF: 3.2 |
| C[N+]1(CCC(C(N)=O)(c2ccccc2)c2ccccc2)CCCCC1.[Br-] | 178 | – | – |
| CCC(=O)c1ccc2c(c1)N(CCCN(C)C)c1ccccc1S2 | 69.5 | – | – |
| CC(C)COCOCC(C)C | – | 166 | – |
| NC(=O)N1CCCCC1 | 105 | – | – |
| COCc1ccco1 | – | 132 | – |
| CCN(CC)C(=O)Nc1ccc(OCC(O)CNC(C)(C)C)c(C(C)=O)c1 (stereo not drawn) | 111 | – | – |
| CCC(=O)OC(C)C | – | 110 | log10 vapour pressure (mmHg): 1.35 |
| C=CCC(C)CCC (stereo not drawn) | – | 113 | – |
| C=CC(=O)NC(C)(C)C | 128 | – | – |
| CC(C)CCO[N+](=O)[O-] | – | 146 | log10 Henry constant (atm·m³/mol): -2.59; log10 vapour pressure (mmHg): 0.71 |
| Clc1ccc(Cl)c(-c2c(Cl)ccc(Cl)c2Cl)c1 | – | – | log10 Henry constant (atm·m³/mol): -3.92; log10 Koa: 8.79; log10 Koc (L/kg): 5.55 |
| Nc1ccc2ccc3ccccc3c2c1 | 143 | – | – |
| Cc1nc2n(c(=O)c1CCN1CCC(c3noc4cc(F)ccc34)CC1)CCCC2 | 170 | – | – |
| CC(Cl)C(Cl)(Cl)Cl (stereo not drawn) | -64 | 152 | – |
| CCC(CC)[N+](=O)[O-] | – | – | ready biodegradability: readily biodegradable |
| c1ccc(Nc2cccc3ccccc23)cc1 | 62 | – | ready biodegradability: not readily biodegradable; log10 BCF: 3.23 |
| CC(C)(O)C#CC(C)(C)O | 95 | 205 | – |
| CC(C)c1cccc(O)c1O | 47 | – | – |
| Cc1ccccc1CN | -30 | 206 | log10 BCF: 0.66 |
| C#CCCC(C)C | -125 | 92 | – |
| C[C@@H]1O[C@@H](O)[C@H](O)[C@H](O)[C@H]1O | 140 | – | – |

| SMILES | melting point [°C] | boiling point [°C] | further results |
| --- | --- | --- | --- |
| CC(C)C1(Cc2ccco2)C(=O)NC(=O)NC1=O | 169 | – | – |
| ClCCC(Cl)Cl | -59 | 146 | – |
| Cc1ccccc1N.Cl | 215 | 242 | – |
| Cc1c2ccccc2cc2c1ccc1ccccc12 | 141 | – | log10 biotransformation half-life (days): -0.05 |
| c1ccc2nsnc2c1 | 43 | 203 | – |
| CC(=O)Nc1ccc(S(=O)(=O)O)cc1 | – | – | ready biodegradability: not readily biodegradable |
| COC(=O)c1ccc(C(=O)OC)cc1 | 141 | 288 | log10 vapour pressure (mmHg): -2; ready biodegradability: readily biodegradable |
| N#CCCl | – | 126 | log10 vapour pressure (mmHg): 1.18 |
| Cc1ccc(Cl)c(Nc2ccccc2C(=O)O)c1Cl | 257 | – | – |
| O=c1ccc2ccc(O)c(O)c2o1 | 262 | – | – |
| OC(C1=CC(=C(c2ccccn2)c2ccccn2)C=C1)(c1ccccn1)c1ccccn1 | 147 | – | – |
| CCC(C)COC (stereo not drawn) | – | 90 | – |
| CCCCCC1OC1CC1OC1CCCCCCCC(=O)OCC(COC(=O)CCCCCCCC1OC1CC1OC1CCCCC)OC(=O)CCCCCCCC1OC1CC1OC1CCCCC (stereo not drawn) | – | – | ready biodegradability: readily biodegradable |
| CC(C)COC(=O)c1ccc(C(=O)OCC(C)C)cc1 | 55 | – | – |
| N#Cc1ccccc1Cl | 46.3 | 232 | ready biodegradability: not readily biodegradable |
| C=CCc1cc(C)ccc1O | – | 237 | – |
| C[C@]12C=CC(=O)C=C1CC[C@@H]1[C@@H]2CC[C@@]2(C)[C@H]1CC[C@]2(C)O | 164 | – | – |
| O=C([O-])Cc1ccccc1Nc1c(Cl)cccc1Cl.[Na+] | 284 | – | – |
| Cc1ccccc1NC(=S)Nc1ccccc1C | 158 | – | – |
| CC(C)(CO)CO | 130 | 208 | ready biodegradability: not readily biodegradable; log10 BCF: 0.67 |
| CCCCCCC(O)C(=O)O (stereo not drawn) | 70 | – | – |
| CCNC(C)=O | – | 205 | ready biodegradability: readily biodegradable |
| C[C@]12C=CC(=O)C=C1[C@@H](F)C[C@@H]1[C@@H]2[C@@H](O)C[C@@]2(C)[C@H]1CC[C@]2(O)C(=O)CO | 210 | – | – |
| CC(=O)OC(C(=O)Cl)c1ccccc1 (stereo not drawn) | 36 | – | – |
| CCCCCOC(=O)CCCC | -78.8 | 204 | – |

| SMILES | melting point [°C] | boiling point [°C] | further results |
| --- | --- | --- | --- |
| On1nnc2ccccc21 | 158 | – | – |
| C=CC(C)(O)CC(C)C (stereo not drawn) | – | 146 | – |
| O=C(O)c1cc(F)c(F)cc1F | 100 | – | – |
| Cc1cc(C)c2ccccc2c1C | 55.5 | – | – |
| CC(=O)c1ccc(O)c(O)c1O | 173 | – | – |
| CCC(C(=O)O)C1(O)CCC(c2ccccc2)CC1 (stereo not drawn) | 157 | – | – |
| O=C(Nc1ccccc1)NC1CCCC1 | – | – | log10 Koc (L/kg): 1.93 |
| CCCCCCC(=O)CCC | -9 | 206 | – |
| O=c1sc2ccccc2c(O)c1C1CC(c2ccc(-c3ccc(Br)cc3)cc2)Cc2ccccc21 (stereo not drawn) | 234 | – | – |
| COC(=O)c1c(Cl)c(Cl)c(C(=O)OC)c(Cl)c1Cl | 155 | 365 | log10 Koc (L/kg): 3.7; log10 vapour pressure (mmHg): -5.6; ready biodegradability: not readily biodegradable |
| OC(c1ccc(F)cc1)(c1cncnc1)c1ccccc1Cl (stereo not drawn) | 126 | – | – |
| CCC(C)(CC)CC | -90.9 | 118 | log10 vapour pressure (mmHg): 1.36 |
| CN1C(=O)C(O)N=C(c2ccccc2Cl)c2cc(Cl)ccc21 (stereo not drawn) | 206 | – | – |
| O=C(Nc1cc(Cl)cc(Cl)c1O)c1c(O)c(Cl)cc(Cl)c1Cl | 210 | – | – |
| CCCCC(=O)O | -34 | 186 | log10 Henry constant (atm·m³/mol): -6.33; log10 vapour pressure (mmHg): -0.708; ready biodegradability: readily biodegradable |
| Clc1ccc(-c2cc(Cl)c(Cl)cc2Cl)cc1Cl | – | – | log10 Koa: 9.82; log10 vapour pressure (mmHg): -5.05; log10 biotransformation half-life (days): 2.19 |
| CC(=O)Oc1ccccc1OC(C)=O | 64.5 | – | – |
| O=C1CCCCC1C1CCCCC1 (stereo not drawn) | -32 | 264 | – |
| O=C1C=CC(=O)N1 | 94 | – | – |
| CCCCN(CCO)CCCC | -75 | 229 | ready biodegradability: not readily biodegradable |
| CC[C@H]1CN2CCc3cc(OC)c(OC)cc3[C@@H]2C[C@@H]1C[C@@H]1NCCc2cc(O)c(OC)cc21 | 116 | – | – |
| CCCCCOC(=O)CCC(=O)OCCCCC | -10.8 | – | – |
| CCCc1ccccc1N | – | 226 | – |
| CCOc1cccc(N(CC)CC)c1 | – | 286 | – |
| CCOc1cc(C(C)(C)C)ccc1C1COC(c2c(F)cccc2F)=N1 (stereo not drawn) | 102 | – | log10 vapour pressure (mmHg): -7.79 |

| SMILES | melting point [°C] | boiling point [°C] | further results |
| --- | --- | --- | --- |
| C#C[C@]1(O)CC[C@H]2[C@@H]3CCC4=C(CCC(=O)C4)[C@H]3CC[C@@]21C | 170 | – | – |
| c1ccc2c(c1)c(Cc1cn(CN3CCCCC3)c3ccccc13)cn2CN1CCCCC1 | 138 | – | – |
| CNC(C)Cc1ccc(O)cc1 (stereo not drawn) | 161 | – | – |
| O=P([O-])([O-])O[C@@H]1[C@@H](O)[C@H](O)[C@@H](O)[C@H](O)[C@@H]1O | 195 | – | – |
| CC1(C)C(C=C(Cl)Cl)C1C(=O)OC(C#N)c1ccc(F)c(Oc2ccccc2)c1 (stereo not drawn) | 60 | – | log10 Koc (L/kg): 5; log10 vapour pressure (mmHg): -9.82 |
| CC(=O)OCC(=O)[C@@]1(O)CC[C@H]2[C@@H]3C[C@H](C)C4=CC(=O)C=C[C@]4(C)[C@H]3[C@@H](O)C[C@@]21C | 206 | – | – |
| CN(CCCN)CCCN | – | 232 | – |
| Ic1cc(I)c(I)c(I)c1 | 148 | – | – |
| OCC(F)(F)C(F)(F)C(F)(F)CO | 79.5 | – | – |
| ClCCCCCCl | -72.8 | 179 | log10 Henry constant (atm·m³/mol): -3.25; log10 vapour pressure (mmHg): 0.0531 |
| Cc1cc(C)ncn1 | 25 | 159 | – |
| COc1ccccc1CC#N | 69.8 | – | – |
| NCc1ccccn1 | – | 203 | – |
| CCCCCCC(=O)O | -7.5 | 222 | log10 vapour pressure (mmHg): -1.97; ready biodegradability: readily biodegradable |
| Nc1cccc2cc3ccccc3nc12 | 108 | – | – |
| O=C(Nc1ccc(Cl)c(Cl)c1)c1cc(Cl)cc(Cl)c1O | 161 | – | – |
| C/C(=C\c1ccccc1)C(=O)O | 80 | – | log10 vapour pressure (mmHg): -3.04 |
| CC=C(C)Cl | -19 | 64.5 | – |
| CNC(=O)Nc1ccccc1 | – | – | log10 Koc (L/kg): 1.29 |
| Cc1ncc([N+](=O)[O-])n1C | 138 | – | – |
| C/C(=C\CNc1ncnc2[nH]cnc12)CO | 208 | – | – |
| ClCCCCCCCCCl | – | 241 | ready biodegradability: not readily biodegradable |
| O=NN1CCCC1 | – | 214 | log10 vapour pressure (mmHg): -1.22 |
| CCOP(=S)(OCC)SCCS(=O)(=O)CC | – | – | log10 Koc (L/kg): 3.22; log10 BCF: 0.7; log10 biotransformation half-life (days): -0.67 |
| Nc1nc(=O)cc(Cl)[nH]1 | 262 | – | – |

| SMILES | melting point [°C] | boiling point [°C] | further results |
| --- | --- | --- | --- |
| CC1CCCC(Br)C1 (stereo not drawn) | – | 181 | – |
| C=CC(C)CC (stereo not drawn) | -153 | 54.2 | log10 vapour pressure (mmHg): 2.43 |
| OCCN1CN(CCO)CN(CCO)C1 | – | – | ready biodegradability: readily biodegradable |
| Cc1cccc(Cl)c1 | -47.8 | 162 | log10 vapour pressure (mmHg): 0.565 |
| S=C(SC(=S)N1CCCCC1)N1CCCCC1 | 110 | – | – |
| Nc1ccc(S(=O)(=O)c2ccc(NCCO)cc2)cc1 | 131 | – | – |
| O=C=O | -56.5 | -78.5 | log10 vapour pressure (mmHg): 4.68 |
| COc1cc(Cl)cc(Cl)c1 | 41 | – | – |
| CCC(CC)COC(C)=O | – | 162 | – |
| Oc1ccc(Cl)c(Cl)c1 | 68 | 253 | log10 Koc (L/kg): 3.09; ready biodegradability: not readily biodegradable; log10 BCF: 1.69; log10 biotransformation half-life (days): -0.92 |
| O=S(=O)(O)c1ccc2ccccc2c1 | 91 | – | – |
| C=C(CC)C(C)CC (stereo not drawn) | – | 112 | – |
| FC(F)(F)C(=NOCC1OCCO1)c1ccc(Cl)cc1 | – | – | log10 vapour pressure (mmHg): -3.55 |
| CCC(=O)OCc1ccco1 | – | 195 | – |
| CCCCOP(=O)(O)OCCCC | -13 | – | ready biodegradability: not readily biodegradable |
| CC(Br)CBr (stereo not drawn) | -55.5 | 142 | log10 vapour pressure (mmHg): 0.894 |
| CCCC(O)(CC)CCC | – | 182 | – |
| CCCC(=O)C(C)(C)C | – | 147 | – |
| C1CCC2(CC1)CCCCC2 | – | 207 | – |
| CC(=O)Nc1ccccc1Cl | 89 | – | log10 Koc (L/kg): 1.58 |
| OCCCc1ccccn1 | 34 | 260 | – |
| c1cn[nH]n1 | 23 | 204 | – |
| FC1=C(F)C(F)(F)C1(F)F | -60 | 5.5 | – |
| FC(F)(F)C(F)(C(F)(F)F)C(F)(F)F | – | 0 | – |
| Clc1c(Cl)c(Cl)c2nccnc2c1Cl | 190 | – | – |
